Measurements from ChEMBL document CHEMBL6103537 (J Med Chem, 2025).
Activity calls are given as the source filed them. The rule behind the calls is not given here.

Assays:
[1] = target: T1, Protein cereblon/Signal transducer and activator of transcription 6 (Homo sapiens, UniProt P42226+Q96SW2); assay: PROTAC activity at STAT6/CRBN in human MV4-11 cells assessed as reduction in STAT6 level at 2 uM measured upto 1200 mins in presence of […] by HiBiT bioluminescence assay; type: cell-based
[2] = Stability in dog plasma assessed as parent compound remaining measured at 30 mins by LC-MS/MS analysis; type: ADME, cell-free, Canis lupus familiaris; details: read-out: Stability
[3] = Metabolic stability in dog liver microsome assessed as parent compound remaining measured at 45 mins in presence of NADPH by LC-MS/MS analysis; type: ADME, Canis lupus familiaris; details: liver microsomes, read-out: Stability
[4] = tested on: PBMC; assay: Downregulation of STAT1 level in human PBMC cells at 5 uM incubated for 18 hrs by Western blot analysis relative to control; type: functional, cell-based
[5] = Stability in human plasma assessed as parent compound remaining measured at 60 mins by LC-MS/MS analysis; type: ADME, cell-free; details: read-out: Stability
[6] = target: Cereblon/Ikaros (Homo sapiens) (UniProt Q96SW2+Q13422); assay: PROTAC activity at CRBN/IKZF1 in human Jurkat cells assessed as degradation of IKZF1 protein at 0.01 to 10 uM incubated for 20 hrs by Western blotting analysis; type: cell-based; details: dose 0.01-10 µM
[7] = target: T2, Protein cereblon/Signal transducer and activator of transcription 5A/Signal transducer and activator of transcription 5B (Homo sapiens) (UniProt P42229+P51692+Q96SW2); assay: PROTAC activity at STAT5/CRBN in human L-1236 cells assessed as reduction in STAT5 level at 10 uM incubated for 24 hrs by Western blot analysis; type: cell-based
[8] = Metabolic stability in monkey liver microsome assessed as parent compound remaining measured at 15 mins in presence of NADPH by LC-MS/MS analysis; type: ADME, Macaca mulatta; details: rhesus monkey, liver microsomes, read-out: Stability
[9] = target: T1, Protein cereblon/Signal transducer and activator of transcription 6; assay: PROTAC activity at STAT6/CRBN in human MV4-11 cells assessed as reduction in STAT6 level at 2 uM measured upto 1200 mins in presence of lenalidomide by HiBiT bioluminescence assay; type: cell-based; details: Jurkat
[10] = Stability in monkey plasma assessed as parent compound remaining measured at 5 mins by LC-MS/MS analysis; type: ADME, cell-free, Macaca mulatta; details: rhesus monkey, read-out: Stability
[11] = Stability in rat plasma assessed as parent compound remaining measured at 60 mins by LC-MS/MS analysis; type: ADME, cell-free; details: read-out: Stability
[12] = target: Protein cereblon/Signal transducer and activator of transcription 2 (Homo sapiens) (UniProt Q96SW2+P52630); assay: PROTAC activity at STAT2/CRBN in human MV4-11 cells assessed as reduction in STAT2 level at 10 uM incubated for 12 hrs by Western blot analysis relative to control; type: cell-based
[13] = target: T1, Protein cereblon/Signal transducer and activator of transcription 6; assay: PROTAC activity at STAT6/CRBN in human PBMC cells assessed as reduction in STAT6 level at 10 uM incubated for 18 hrs by Western blot analysis relative to control; type: cell-based
[14] = Stability in monkey plasma assessed as parent compound remaining measured at 15 mins by LC-MS/MS analysis; type: ADME, cell-free, Macaca mulatta; details: rhesus monkey, read-out: Stability
[15] = Metabolic stability in dog liver microsome assessed as half life measured upto 60 mins in presence of NADPH by LC-MS/MS analysis; type: ADME, Canis lupus familiaris; details: liver microsomes
[16] = Downregulation of EPB41L1 level in human PBMC cells at 5 uM incubated for 18 hrs by Western blot analysis relative to control; type: functional
[17] = target: T2, Protein cereblon/Signal transducer and activator of transcription 5A/Signal transducer and activator of transcription 5B (Homo sapiens); assay: PROTAC activity at STAT5 at residue Y694/CRBN in human MV4-11 cells assessed as reduction in STAT5 level at upto 10 uM incubated for 12 hrs by Western blot analysis; type: cell-based
[18] = Stability in rat plasma assessed as parent compound remaining measured at 15 mins by LC-MS/MS analysis; type: ADME, cell-free; details: read-out: Stability
[19] = Stability in dog plasma assessed as parent compound remaining measured at 5 mins by LC-MS/MS analysis; type: ADME, cell-free, Canis lupus familiaris; details: read-out: Stability
[20] = target: T1, Protein cereblon/Signal transducer and activator of transcription 6; assay: PROTAC activity at STAT6/CRBN in human L-1236 cells assessed as reduction in STAT6 level at 10 uM incubated for 24 hrs by Western blot analysis; type: cell-based
[21] = Metabolic stability in human liver microsome assessed as parent compound remaining measured at 5 mins in presence of NADPH by LC-MS/MS analysis; type: ADME; details: liver microsomes, read-out: Stability
[22] = target: T1, Protein cereblon/Signal transducer and activator of transcription 6; assay: PROTAC activity at STAT6/CRBN in human PBMC cells assessed as reduction in STAT6 level at 5 uM incubated for 18 hrs by Western blot analysis relative to control; type: cell-based; design: scale not given: the % may be the effect or the level left
[23] = Metabolic stability in mouse liver microsome assessed as parent compound remaining measured at 45 mins in presence of NADPH by LC-MS/MS analysis; type: ADME; details: liver microsomes, read-out: Stability
[24] = target: Protein cereblon/Signal transducer and transcription activator 6 (Mus musculus) (UniProt P52633+Q8C7D2); assay: In vivo PROTAC activity at STAT6/CRBN in BALB/c mouse assessed as reduction in STAT6 level in lung at 200 mg/kg, ip measured at 6 hrs by Western blot analysis; type: functional, organism-based; design: scale not given: the % may be the effect or the level left
[25] = Stability in mouse plasma assessed as half life measured upto 60 mins by LC-MS/MS analysis; type: ADME, cell-free
[26] = target: Protein cereblon/Signal transducer and activator of transcription 4 (Homo sapiens) (UniProt Q96SW2+Q14765); assay: PROTAC activity at STAT4/CRBN in human PBMC cells assessed as reduction in STAT4 level at 10 uM incubated for 18 hrs by Western blot analysis relative to control; type: cell-based
[27] = target: T1, Protein cereblon/Signal transducer and activator of transcription 6; assay: PROTAC activity at STAT6/CRBN in human MV4-11 cells assessed as reduction in STAT6 level at 5 uM incubated for 12 hrs by Western blot analysis relative to control; type: cell-based
[28] = Downregulation of AKR7A3 level in human PBMC cells at 5 uM incubated for 18 hrs by Western blot analysis relative to control; type: functional
[29] = Stability in mouse plasma assessed as parent compound remaining measured at 5 mins by LC-MS/MS analysis; type: ADME, cell-free; details: read-out: Stability
[30] = Metabolic stability in human liver microsome assessed as parent compound remaining measured at 45 mins in presence of NADPH by LC-MS/MS analysis; type: ADME; details: liver microsomes, read-out: Stability
[31] = Stability in human plasma assessed as half life measured upto 60 mins by LC-MS/MS analysis; type: ADME, cell-free
[32] = Stability in rat plasma assessed as parent compound remaining measured at 5 mins by LC-MS/MS analysis; type: ADME, cell-free; details: read-out: Stability
[33] = target: Protein cereblon/Eukaryotic peptide chain release factor GTP-binding subunit ERF3A (Homo sapiens) (UniProt Q96SW2+P15170); assay: PROTAC activity at CRBN/GSPT1 in human Jurkat cells assessed as degradation of GSPT1 protein at 0.01 to 10 uM incubated for 20 hrs by Western blotting analysis; type: cell-based; details: dose 0.01-10 µM
[34] = Metabolic stability in rat liver microsome assessed as parent compound remaining measured at 30 mins in presence of NADPH by LC-MS/MS analysis; type: ADME; details: liver microsomes, read-out: Stability
[35] = Stability in dog plasma assessed as parent compound remaining measured at 120 mins by LC-MS/MS analysis; type: ADME, cell-free, Canis lupus familiaris; details: read-out: Stability

Activity [1]: Active
remaining at 0.5 h [2]: 75%
remaining at 0.75 h [3]: 93%
remaining at 1 h [5]: 94%
Activity [6]: Active
Activity [7]: No effect
remaining at 0.25 h [8]: 83%
Activity [9]: Active
remaining at 5 min [10]: 82%
remaining at 1 h [11]: 91%
Emax [12]: < 40%
Emax [13]: > 90%
remaining at 0.25 h [14]: 111%
half-life [15]: > 2 h
Activity [17]: No effect
remaining at 0.25 h [18]: 96%
remaining at 5 min [19]: 82%
Activity [20]: No effect
remaining at 5 min [21]: 94%
Activity [22]: 79%
remaining at 0.75 h [23]: 92%
Activity [24]: > 90%
half-life [25]: > 2 h
Activity [26]: No effect
Emax [27]: > 95%
remaining at 5 min [29]: 102%
remaining at 0.75 h [30]: 91%
half-life [31]: > 2 h
remaining at 5 min [32]: 86%
Activity [33]: No effect
remaining at 0.5 h [34]: 96%
remaining at 2 h [35]: 67%
Structure (SMILES): CC(C)(C)[C@H](NC(=O)c1cc2cc(C(F)(F)P(=O)(O)O)ccc2s1)C(=O)N1C[C@@H](OCCCCCC#Cc2cccc3c2CN(C2CCC(=O)NC2=O)C3=O)C[C@H]1C(=O)N1CCO[C@H](c2ccccc2)C1 (stereo not given in full)
Activity [4]: inactive
Activity [16]: 60%
Activity [28]: 51%
